Results as given in paper PMC5218480 (PLoS ONE, 2017).

System: MV-4-11 cells
Assay: Gene expression microarray analysis (Affymetrix PrimeView) and GSEA
Format: cell-based, human
Design: RFU PODN (11730768_x_at) / Fold change /veh PODN (11730768_x_at) / RFU LINC00158 (11744669_a_at) / Fold change /veh LINC00158 (11744669_a_at) / RFU DUSP10 (11751237_a_at) / Fold change /veh DUSP10 (11751237_a_at) / RFU ID3 (11757404_x_at) / Fold change /veh ID3 (11757404_x_at) / RFU PLEKHG5 (11737974_s_at) / Fold change /veh PLEKHG5 (11737974_s_at) / RFU LRRC4B (11730491_at) / Fold change /veh LRRC4B (11730491_at) / RFU GIMAP4 (11747438_a_at) / Fold change /veh GIMAP4 (11747438_a_at) / RFU KRT8 (11758183_x_at) / Fold change /veh KRT8 (11758183_x_at) / RFU CNN1 (11734310_a_at) / Fold change /veh CNN1 (11734310_a_at) / RFU VPS37D (11726825_at) / Fold change /veh VPS37D (11726825_at) / RFU C10orf10 (11716522_x_at) / Fold change /veh C10orf10 (11716522_x_at) / RFU KIR2DL2 /// KIR2DL4 /// KIR2DL5A /// KIR2DL5B /// KIR2DS1 /// KIR2DS2 /// KIR2DS3 /// KIR2DS4 /// KIR3DL3 /// KIR3DL3 /// KIR3DS1 (11738374_at) / Fold change /veh KIR2DL2 /// KIR2DL4 /// KIR2DL5A /// KIR2DL5B /// KIR2DS1 /// KIR2DS2 /// KIR2DS3 /// KIR2DS4 /// KIR3DL3 /// KIR3DL3 /// KIR3DS1 (11738374_at) / RFU C1QL1 (11718748_at) / Fold change /veh C1QL1 (11718748_at) / RFU TMPRSS4 (11747572_a_at) / Fold change /veh TMPRSS4 (11747572_a_at) / RFU HAMP (11756126_x_at) / Fold change /veh HAMP (11756126_x_at) / RFU RNFT2 (11725882_a_at) / Fold change /veh RNFT2 (11725882_a_at) / RFU NR4A2 (11747474_a_at) / Fold change /veh NR4A2 (11747474_a_at) / RFU ABCC12 (11746883_a_at) / Fold change /veh ABCC12 (11746883_a_at) / RFU TMEM136 (11760407_x_at) / Fold change /veh TMEM136 (11760407_x_at) / RFU CLDN22 /// WWC2 (11732394_at) / Fold change /veh CLDN22 /// WWC2 (11732394_at) / RFU HLA-DPB1 (11760878_x_at) / Fold change /veh HLA-DPB1 (11760878_x_at) / RFU SPINT1 (11716480_a_at) / Fold change /veh SPINT1 (11716480_a_at) / RFU GAP43 (11754022_s_at) / Fold change /veh GAP43 (11754022_s_at) / RFU A4GNT (11735810_at) / Fold change /veh A4GNT (11735810_at) / RFU PRB3 (11715151_x_at) / Fold change /veh PRB3 (11715151_x_at) / RFU TUBB4B (11761932_at) / Fold change /veh TUBB4B (11761932_at) / RFU CAPN14 (11732068_a_at) / Fold change /veh CAPN14 (11732068_a_at) / RFU TMCC2 (11721928_a_at) / Fold change /veh TMCC2 (11721928_a_at) / RFU IRGQ (11745062_a_at) / Fold change /veh IRGQ (11745062_a_at) / RFU FAM174B (11720279_a_at) / Fold change /veh FAM174B (11720279_a_at) / RFU TMPRSS4 (11748680_a_at) / Fold change /veh TMPRSS4 (11748680_a_at) / RFU FAM212B (11763350_a_at) / Fold change /veh FAM212B (11763350_a_at) / RFU PLEKHG5 (11743358_a_at) / Fold change /veh PLEKHG5 (11743358_a_at) / RFU ZSCAN30 (11745921_a_at) / Fold change /veh ZSCAN30 (11745921_a_at) / RFU CMKLR1 (11741424_a_at) / Fold change /veh CMKLR1 (11741424_a_at) / RFU LOC101060620 /// MAPK8IP1 (11723275_at) / Fold change /veh LOC101060620 /// MAPK8IP1 (11723275_at) / RFU SPTSSB (11747773_x_at) / Fold change /veh SPTSSB (11747773_x_at) / RFU PRSS12 (11739890_at) / Fold change /veh PRSS12 (11739890_at) / RFU BIN1 (11741810_x_at) / Fold change /veh BIN1 (11741810_x_at) / RFU WNT11 (11732464_a_at) / Fold change /veh WNT11 (11732464_a_at) / RFU C10orf10 (11716521_a_at) / Fold change /veh C10orf10 (11716521_a_at) / RFU C5orf56 (11738089_at) / Fold change /veh C5orf56 (11738089_at) / RFU CYB561 (11721691_x_at) / Fold change /veh CYB561 (11721691_x_at) / RFU ANKRD19P (11752326_a_at) / Fold change /veh ANKRD19P (11752326_a_at) / RFU OR2T12 /// OR2T33 /// OR2T8 (11738714_s_at) / Fold change /veh OR2T12 /// OR2T33 /// OR2T8 (11738714_s_at) / RFU VCAN (11748164_a_at) / Fold change /veh VCAN (11748164_a_at) / RFU JSRP1 (11732532_at) / Fold change /veh JSRP1 (11732532_at) / RFU KRTAP10-11 (11738290_x_at) / Fold change /veh KRTAP10-11 (11738290_x_at) / RFU MYO3A (11730013_a_at) / Fold change /veh MYO3A (11730013_a_at) / RFU EBF3 (11725865_a_at) / Fold change /veh EBF3 (11725865_a_at) / RFU CAMK2N1 (11719241_x_at) / Fold change /veh CAMK2N1 (11719241_x_at) / RFU C5orf56 (11738088_a_at) / Fold change /veh C5orf56 (11738088_a_at) / RFU OLFML3 (11715873_a_at) / Fold change /veh OLFML3 (11715873_a_at) / RFU LOC100653217 /// NTM (11731650_a_at) / Fold change /veh LOC100653217 /// NTM (11731650_a_at) / RFU MAPK11 (11762145_a_at) / Fold change /veh MAPK11 (11762145_a_at) / RFU FIZ1 (11724087_x_at) / Fold change /veh FIZ1 (11724087_x_at) / RFU OASL (11726364_x_at) / Fold change /veh OASL (11726364_x_at) / RFU SOX15 (11748057_x_at) / Fold change /veh SOX15 (11748057_x_at) / RFU CD79A (11719716_a_at) / Fold change /veh CD79A (11719716_a_at) / RFU HIST1H1D (11736915_at) / Fold change /veh HIST1H1D (11736915_at) / RFU CASKIN2 (11723855_a_at) / Fold change /veh CASKIN2 (11723855_a_at) / RFU LOC730098 (11760151_x_at) / Fold change /veh LOC730098 (11760151_x_at) / RFU OR4N2 (11742367_at) / Fold change /veh OR4N2 (11742367_at) / RFU PRRT2 (11749266_a_at) / Fold change /veh PRRT2 (11749266_a_at) / RFU SNX32 (11753110_a_at) / Fold change /veh SNX32 (11753110_a_at) / RFU CDHR5 (11726645_a_at) / Fold change /veh CDHR5 (11726645_a_at) / RFU RCAN1 (11760418_a_at) / Fold change /veh RCAN1 (11760418_a_at) / RFU FAM167A (11723789_a_at) / Fold change /veh FAM167A (11723789_a_at) / RFU FAM26E (11764081_at) / Fold change /veh FAM26E (11764081_at) / RFU ISYNA1 (11749810_s_at) / Fold change /veh ISYNA1 (11749810_s_at) / RFU ACY1 (11761880_at) / Fold change /veh ACY1 (11761880_at) / RFU 11764098_at / Fold change /veh 11764098_at / RFU SAMD14 (11745864_x_at) / Fold change /veh SAMD14 (11745864_x_at) / RFU NPB (11741838_a_at) / Fold change /veh NPB (11741838_a_at) / RFU TMPRSS6 (11731388_a_at) / Fold change /veh TMPRSS6 (11731388_a_at) / RFU KRTAP10-2 (11738614_at) / Fold change /veh KRTAP10-2 (11738614_at) / RFU ARHGAP8 /// PRR5-ARHGAP8 (11727945_x_at) / Fold change /veh ARHGAP8 /// PRR5-ARHGAP8 (11727945_x_at) / RFU KRTAP5-7 /// NADSYN1 (11734609_at) / Fold change /veh KRTAP5-7 /// NADSYN1 (11734609_at) / RFU RASL12 (11751679_a_at) / Fold change /veh RASL12 (11751679_a_at) / RFU CDKN2B (11736163_a_at) / Fold change /veh CDKN2B (11736163_a_at) / RFU PRF1 (11729649_at) / Fold change /veh PRF1 (11729649_at) / RFU, ZNF638 /// ZNF638-IT1 / Fold change vs veh, ZNF638 /// ZNF638-IT1 / RFU, PANK3 / Fold change vs veh, PANK3 / RFU, SH3YL1 / Fold change vs veh, SH3YL1 / RFU, ZEB2 / Fold change vs veh, ZEB2 / RFU, NRIP1 / Fold change vs veh, NRIP1 / RFU, PTTG1IP / Fold change vs veh, PTTG1IP / RFU, CAPN2 / Fold change vs veh, CAPN2 / RFU, MED14 / Fold change vs veh, MED14 / RFU, SNORA58 / Fold change vs veh, SNORA58 / RFU, C1orf63 / Fold change vs veh, C1orf63 / RFU, LRRFIP1 / Fold change vs veh, LRRFIP1 / RFU, NDUFAF7 / Fold change vs veh, NDUFAF7 / RFU, SLC12A2 / Fold change vs veh, SLC12A2 / RFU, IBTK / Fold change vs veh, IBTK / RFU, ESF1 / Fold change vs veh, ESF1 / Fold change vs veh, TMEM50B / RFU, TAOK1 / Fold change vs veh, TAOK1 / RFU, ACBD3 / Fold change vs veh, ACBD3 / RFU, TMA16 / Fold change vs veh, TMA16 / RFU, RWDD3 / Fold change vs veh, RWDD3 / RFU, BCAT1 / Fold change vs veh, BCAT1 / RFU, EDEM3 / Fold change vs veh, EDEM3 / RFU, TMEM33 / Fold change vs veh, TMEM33 / RFU, WDR75 / Fold change vs veh, WDR75 / RFU, AHCTF1 / Fold change vs veh, AHCTF1 / RFU, TFRC / Fold change vs veh, TFRC / RFU, ZDHHC17 / Fold change vs veh, ZDHHC17 / RFU, NOM1 / Fold change vs veh, NOM1 / RFU, ARL8B / Fold change vs veh, ARL8B / RFU, ZBTB11 / Fold change vs veh, ZBTB11 / RFU, TAMM41 / Fold change vs veh, TAMM41 / RFU, KIAA1704 /// LOC100996395 / Fold change vs veh, KIAA1704 /// LOC100996395 / RFU, ING1 / Fold change vs veh, ING1 / RFU, TRMT61B / Fold change vs veh, TRMT61B / RFU, FUBP3 / Fold change vs veh, FUBP3 / RFU, TP53 / Fold change vs veh, TP53 / RFU, TNKS2 / Fold change vs veh, TNKS2 / RFU, ZFP14 / Fold change vs veh, ZFP14 / RFU, ACTR2 / Fold change vs veh, ACTR2 / RFU, PPP3R1 / Fold change vs veh, PPP3R1 / RFU, PIK3R1 / Fold change vs veh, PIK3R1 / RFU, HNRNPA1 / Fold change vs veh, HNRNPA1 / RFU, RNF170 / Fold change vs veh, RNF170 / RFU, ZNF28 / Fold change vs veh, ZNF28 / RFU, RNGTT / Fold change vs veh, RNGTT / RFU, OGT / Fold change vs veh, OGT / RFU, BRD1 / Fold change vs veh, BRD1 / RFU, MARS / Fold change vs veh, MARS / RFU, ZNF655 / Fold change vs veh, ZNF655 / RFU, FAHD1 / Fold change vs veh, FAHD1 / RFU, BDP1 / Fold change vs veh, BDP1 / RFU, LRRCC1 / Fold change vs veh, LRRCC1 / RFU, ARID1A / Fold change vs veh, ARID1A / RFU, ZNF146 / Fold change vs veh, ZNF146 / RFU, ZNF330 / Fold change vs veh, ZNF330 / RFU, GPN3 / Fold change vs veh, GPN3 / RFU, C9orf123 / Fold change vs veh, C9orf123 / RFU, N4BP2L2 / Fold change vs veh, N4BP2L2 / RFU, ARFIP1 / Fold change vs veh, ARFIP1 / RFU, FAM179B / Fold change vs veh, FAM179B / RFU, BCL10 / Fold change vs veh, BCL10 / RFU, UHRF1BP1L / Fold change vs veh, UHRF1BP1L / RFU, BET1 / Fold change vs veh, BET1 / RFU, CNOT2 / Fold change vs veh, CNOT2 / RFU, ZNF268 / Fold change vs veh, ZNF268 / Fold change vs veh, ZNF507 / RFU, DGCR2 / Fold change vs veh, DGCR2 / RFU, WDSUB1 / Fold change vs veh, WDSUB1 / Fold change vs veh, HSP90B1 /// MIR3652 / RFU, ADSS / Fold change vs veh, ADSS / RFU, GK / Fold change vs veh, GK / RFU, ZNF148 / Fold change vs veh, ZNF148 / RFU, TAF9 / Fold change vs veh, TAF9 / RFU, SLC1A5 / Fold change vs veh, SLC1A5 / RFU, SLMO2 / Fold change vs veh, SLMO2 / RFU, ABCC4 / Fold change vs veh, ABCC4 / RFU, LOC101060439 /// RAP1B / Fold change vs veh, LOC101060439 /// RAP1B / RFU, RFX7 / Fold change vs veh, RFX7 / RFU, GTPBP10 / Fold change vs veh, GTPBP10 / RFU, CNEP1R1 / Fold change vs veh, CNEP1R1 / RFU, BIVM-ERCC5 /// ERCC5 / Fold change vs veh, BIVM-ERCC5 /// ERCC5 / RFU, ILF3 / Fold change vs veh, ILF3 / RFU 11762660_at / Fold change /veh 11762660_at / RFU VCAN (11757783_s_at) / Fold change /veh VCAN (11757783_s_at) / RFU DDX43 (11728927_at) / Fold change /veh DDX43 (11728927_at) / RFU KRT8 (11758188_x_at) / Fold change /veh KRT8 (11758188_x_at) / RFU NKD1 (11759106_at) / Fold change /veh NKD1 (11759106_at) / RFU SRD5A1 (11742802_a_at) / Fold change /veh SRD5A1 (11742802_a_at) / RFU TPSAB1 /// TPSB2 (11721975_s_at) / Fold change /veh TPSAB1 /// TPSB2 (11721975_s_at) / RFU GSTM3 (11746129_a_at) / Fold change /veh GSTM3 (11746129_a_at) / RFU IL23R (11737362_x_at) / Fold change /veh IL23R (11737362_x_at) / RFU TMEM51 (11727254_a_at) / Fold change /veh TMEM51 (11727254_a_at) / RFU PIWIL2 (11732686_x_at) / Fold change /veh PIWIL2 (11732686_x_at) / RFU ORM1 (11744905_x_at) / Fold change /veh ORM1 (11744905_x_at) / RFU CCDC152 (11743942_at) / Fold change /veh CCDC152 (11743942_at) / RFU ECM1 (11717891_a_at) / Fold change /veh ECM1 (11717891_a_at) / RFU IL23R (11748794_a_at) / Fold change /veh IL23R (11748794_a_at) / RFU TNFAIP8L3 (11732012_x_at) / Fold change /veh TNFAIP8L3 (11732012_x_at) / RFU MBOAT4 (11741988_at) / Fold change /veh MBOAT4 (11741988_at) / RFU 11764193_at / Fold change /veh 11764193_at / RFU TMEM53 (11763286_at) / Fold change /veh TMEM53 (11763286_at) / RFU MAGEB2 (11727129_at) / Fold change /veh MAGEB2 (11727129_at) / RFU TMEM200A (11744735_a_at) / Fold change /veh TMEM200A (11744735_a_at) / RFU CCDC152 (11751479_a_at) / Fold change /veh CCDC152 (11751479_a_at) / RFU FAM211A (11726209_a_at) / Fold change /veh FAM211A (11726209_a_at) / RFU RGS16 (11746705_a_at) / Fold change /veh RGS16 (11746705_a_at) / RFU VCAN (11755009_s_at) / Fold change /veh VCAN (11755009_s_at) / RFU RHOB (11743442_s_at) / Fold change /veh RHOB (11743442_s_at) / RFU RGS16 (11720943_a_at) / Fold change /veh RGS16 (11720943_a_at) / RFU RGS16 (11720944_at) / Fold change /veh RGS16 (11720944_at) / RFU, VPS4B / Fold change vs veh, VPS4B / RFU, CREB1 / Fold change vs veh, CREB1 / RFU, DNAJC13 / Fold change vs veh, DNAJC13 / RFU, GNAQ / Fold change vs veh, GNAQ / RFU, CDK5R1 / Fold change vs veh, CDK5R1 / RFU, ZRANB3 / Fold change vs veh, ZRANB3 / RFU, CUL4A / Fold change vs veh, CUL4A / RFU, CCNY / Fold change vs veh, CCNY / RFU, UFL1 / Fold change vs veh, UFL1 / RFU, COG3 / Fold change vs veh, COG3 / RFU, DIAPH2 / Fold change vs veh, DIAPH2 / RFU, SKA2 / Fold change vs veh, SKA2 / RFU, AFF3 / Fold change vs veh, AFF3 / RFU, LMF1 / Fold change vs veh, LMF1 / RFU, IPO11 / Fold change vs veh, IPO11 / RFU, DFFB / Fold change vs veh, DFFB / RFU, FOXP1 / Fold change vs veh, FOXP1 / RFU, CARD8 / Fold change vs veh, CARD8 / RFU, STRN3 / Fold change vs veh, STRN3 / RFU, ADK / Fold change vs veh, ADK / RFU, RASSF2 / Fold change vs veh, RASSF2 / RFU, WIPF1 / Fold change vs veh, WIPF1 / RFU, LARP1B / Fold change vs veh, LARP1B / RFU, RASA1 / Fold change vs veh, RASA1 / RFU, RB1 / Fold change vs veh, RB1 / RFU, PPFIA1 / Fold change vs veh, PPFIA1 / RFU, MAT2A / Fold change vs veh, MAT2A / RFU, CCT5 / Fold change vs veh, CCT5 / RFU, WDR92 / Fold change vs veh, WDR92 / RFU, CUX1 / Fold change vs veh, CUX1 / RFU, TTC7A / Fold change vs veh, TTC7A / RFU, TMEM135 / Fold change vs veh, TMEM135 / RFU, DEPTOR / Fold change vs veh, DEPTOR / RFU, CPM / Fold change vs veh, CPM / RFU, DNAJB6 / Fold change vs veh, DNAJB6 / RFU, CACNA2D3 / Fold change vs veh, CACNA2D3 / RFU, DTX4 / Fold change vs veh, DTX4 / RFU, TFCP2 / Fold change vs veh, TFCP2 / RFU, GMCL1 /// GMCL1P1 / Fold change vs veh, GMCL1 /// GMCL1P1 / RFU, AEBP2 / Fold change vs veh, AEBP2 / RFU, SNHG1 /// SNORD22 /// SNORD25 /// SNORD26 /// SNORD27 /// SNORD28 /// SNORD29 /// SNORD31 / Fold change vs veh, SNHG1 /// SNORD22 /// SNORD25 /// SNORD26 /// SNORD27 /// SNORD28 /// SNORD29 /// SNORD31 / Fold change (Aza/veh), C12orf56 (ProbeSet 11735607_a_at) / Fold change (ACY-1035/veh), C12orf56 (ProbeSet 11735607_a_at) / Fold change (Aza/veh), FGFR1OP (ProbeSet 11751329_s_at) / Fold change (ACY-1035/veh), FGFR1OP (ProbeSet 11751329_s_at) / Fold change (Aza/veh), VPS36 (ProbeSet 11739960_a_at) / Fold change (ACY-1035/veh), VPS36 (ProbeSet 11739960_a_at) / RFU SYPL1 (11715823_x_at) / Fold change /veh SYPL1 (11715823_x_at) / RFU IGFBP7 (11715501_s_at) / Fold change /veh IGFBP7 (11715501_s_at) / RFU REEP3 (11722064_at) / Fold change /veh REEP3 (11722064_at) / RFU IGLL1 (11728026_x_at) / Fold change /veh IGLL1 (11728026_x_at): dose or concentration left out as unconfirmed
Details: MV-4-11 cells, 48 hours

Compound: Nc1ccc(-c2cccs2)cc1NC(=O)c1ccc2c(c1)cc(C1CC1)n2CCN1CCOCC1 [ACY-1035]
- Fold change /veh LOC101060620 /// MAPK8IP1 (11723275_at): 0.98
